Tests used:
[1] = target: AP-2 complex subunit alpha-1 (Homo sapiens) (UniProt O95782)
[2] = target: C2 domain-containing protein 5 (Homo sapiens) (UniProt Q86YS7)
[3] = target: Calpain-1 catalytic subunit (Homo sapiens) (UniProt P07384)
[4] = target: Citron Rho-interacting kinase (Homo sapiens) (UniProt O14578)
[5] = target: Conserved oligomeric Golgi complex subunit 8 (Homo sapiens) (UniProt Q96MW5)
[6] = target: Coatomer subunit epsilon (Homo sapiens) (UniProt O14579)
Homo sapiens [7] = organism: Homo sapiens
[8] = target: Cold shock domain-containing protein E1 (Homo sapiens) (UniProt O75534)
[9] = target: Dopamine beta-hydroxylase (Homo sapiens) (UniProt P09172)
[10] = target: dCTP pyrophosphatase 1 (Homo sapiens) (UniProt Q9H773)
[11] = target: Dihydropyrimidinase-related protein 3 (Homo sapiens) (UniProt Q14195)
Homo sapiens [12] = organism: Homo sapiens; remark: listed apart in the source
[13] = target: Extended synaptotagmin-1 (Homo sapiens) (UniProt Q9BSJ8)
[14] = target: Galactocerebrosidase (Homo sapiens) (UniProt P54803)
[15] = target: Aspartate aminotransferase, cytoplasmic (Homo sapiens) (UniProt P17174)
[16] = target: Glucose-6-phosphate isomerase (Homo sapiens) (UniProt P06744)
[17] = target: Histone H4 (Homo sapiens) (UniProt P62805)
Homo sapiens [18] = organism: Homo sapiens; remark: listed apart in the source
[19] = target: Heat shock protein beta-1 (Homo sapiens) (UniProt P04792)
[20] = target: Far upstream element-binding protein 2 (Homo sapiens) (UniProt Q92945)
[21] = target: Keratin, type I cytoskeletal 18 (Homo sapiens) (UniProt P05783)
[22] = target: Mitogen-activated protein kinase kinase kinase 11 (Homo sapiens) (UniProt Q16584)
[23] = target: MAP/microtubule affinity-regulating kinase 3 (Homo sapiens) (UniProt P27448)
[24] = target: Hepatocyte growth factor receptor (Homo sapiens) (UniProt P08581)
[25] = target: MMS19 nucleotide excision repair protein homolog (Homo sapiens) (UniProt Q96T76)
[26] = target: Serine/threonine-protein kinase Nek1 (Homo sapiens) (UniProt Q96PY6)
[27] = target: cGMP-dependent protein kinase 1 (Homo sapiens) (UniProt Q13976)
[28] = target: 26S proteasome non-ATPase regulatory subunit 2 (Homo sapiens) (UniProt Q13200)
[29] = target: Protein-tyrosine kinase 2-beta (Homo sapiens) (UniProt Q14289)
[30] = target: Prothymosin alpha (Homo sapiens) (UniProt P06454)
[31] = target: Ras association domain-containing protein 5 (Homo sapiens) (UniProt Q8WWW0)
[32] = target: ATP-dependent DNA helicase Q1 (Homo sapiens) (UniProt P46063)
[33] = target: Proto-oncogene tyrosine-protein kinase receptor Ret (Homo sapiens) (UniProt P07949)
[34] = target: Small ribosomal subunit protein eS19 (Homo sapiens) (UniProt P39019)
[35] = target: Protein salvador homolog 1 (Homo sapiens) (UniProt Q9H4B6)
[36] = target: Signal peptidase complex subunit 2 (Homo sapiens) (UniProt Q15005)
[37] = target: Serine/threonine-protein kinase STK11 (Homo sapiens) (UniProt Q15831)
Stathmin (Homo sapiens) = Stathmin (Homo sapiens) (UniProt P16949)
[38] = target: Stomatin-like protein 2, mitochondrial (Homo sapiens) (UniProt Q9UJZ1)
[39] = target: Surfeit locus protein 4 (Homo sapiens) (UniProt O15260)
[40] = target: TAR DNA-binding protein 43 (Homo sapiens) (UniProt Q13148)
Elongin-C (Homo sapiens) = Elongin-C (Homo sapiens) (UniProt Q15369)
[41] = target: Transmembrane 9 superfamily member 3 (Homo sapiens) (UniProt Q9HD45)
[42] = target: Calcium load-activated calcium channel (Homo sapiens) (UniProt Q9UM00)
[43] = target: Tripeptidyl-peptidase 1 (Homo sapiens) (UniProt O14773)
Titin (Homo sapiens) = Titin (Homo sapiens) (UniProt Q8WZ42)
[44] = target: Ubiquitin carboxyl-terminal hydrolase 7 (Homo sapiens) (UniProt Q93009)
[45] = target: X-ray repair cross-complementing protein 6 (Homo sapiens) (UniProt P12956)
Further: assay method not described here.

Chain of Protein-tyrosine kinase 2-beta (Homo sapiens) (Q14289 whole entry, looked up): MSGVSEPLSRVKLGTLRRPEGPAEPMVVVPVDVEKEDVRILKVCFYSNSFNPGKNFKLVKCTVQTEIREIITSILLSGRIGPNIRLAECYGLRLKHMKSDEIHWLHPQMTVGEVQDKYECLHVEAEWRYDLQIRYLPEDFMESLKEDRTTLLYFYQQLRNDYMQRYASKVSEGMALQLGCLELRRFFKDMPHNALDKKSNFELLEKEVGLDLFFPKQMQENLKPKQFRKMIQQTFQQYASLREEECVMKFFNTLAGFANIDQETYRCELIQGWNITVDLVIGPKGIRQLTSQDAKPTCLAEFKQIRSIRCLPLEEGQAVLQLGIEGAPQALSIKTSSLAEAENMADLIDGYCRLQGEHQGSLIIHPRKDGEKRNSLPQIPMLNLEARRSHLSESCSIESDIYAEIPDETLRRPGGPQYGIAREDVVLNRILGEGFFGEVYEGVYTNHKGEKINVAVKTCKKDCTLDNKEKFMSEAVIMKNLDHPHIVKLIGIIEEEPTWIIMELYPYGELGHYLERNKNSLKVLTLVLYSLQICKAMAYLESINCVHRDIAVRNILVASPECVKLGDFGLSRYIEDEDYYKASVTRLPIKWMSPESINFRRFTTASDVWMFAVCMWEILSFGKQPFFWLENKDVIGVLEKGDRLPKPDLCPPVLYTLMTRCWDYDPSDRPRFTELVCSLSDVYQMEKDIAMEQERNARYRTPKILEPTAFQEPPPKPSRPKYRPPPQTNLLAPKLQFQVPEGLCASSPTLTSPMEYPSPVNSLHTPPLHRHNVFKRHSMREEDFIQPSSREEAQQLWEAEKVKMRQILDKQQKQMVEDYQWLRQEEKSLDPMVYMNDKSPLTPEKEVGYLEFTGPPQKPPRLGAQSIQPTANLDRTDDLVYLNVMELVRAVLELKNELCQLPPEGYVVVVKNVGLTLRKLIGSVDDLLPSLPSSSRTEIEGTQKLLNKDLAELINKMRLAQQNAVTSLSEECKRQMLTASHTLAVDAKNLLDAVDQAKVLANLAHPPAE
Chain of dCTP pyrophosphatase 1 (Homo sapiens) (Q9H773 whole entry): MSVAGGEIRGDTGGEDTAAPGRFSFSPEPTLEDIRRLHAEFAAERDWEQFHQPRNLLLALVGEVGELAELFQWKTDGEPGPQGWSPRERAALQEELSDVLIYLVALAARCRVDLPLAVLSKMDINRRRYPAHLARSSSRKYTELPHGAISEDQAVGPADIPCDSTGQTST
Chain of Calcium load-activated calcium channel (Homo sapiens) (Q9UM00 whole entry): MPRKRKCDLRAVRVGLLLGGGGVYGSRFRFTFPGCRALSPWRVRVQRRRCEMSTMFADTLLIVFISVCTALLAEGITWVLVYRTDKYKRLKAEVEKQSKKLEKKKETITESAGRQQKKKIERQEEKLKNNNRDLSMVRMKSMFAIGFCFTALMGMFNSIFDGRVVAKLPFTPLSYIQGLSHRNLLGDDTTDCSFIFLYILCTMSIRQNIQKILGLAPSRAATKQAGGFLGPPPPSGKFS
Chain of Mitogen-activated protein kinase kinase kinase 11 (Homo sapiens) (Q16584 whole entry, looked up): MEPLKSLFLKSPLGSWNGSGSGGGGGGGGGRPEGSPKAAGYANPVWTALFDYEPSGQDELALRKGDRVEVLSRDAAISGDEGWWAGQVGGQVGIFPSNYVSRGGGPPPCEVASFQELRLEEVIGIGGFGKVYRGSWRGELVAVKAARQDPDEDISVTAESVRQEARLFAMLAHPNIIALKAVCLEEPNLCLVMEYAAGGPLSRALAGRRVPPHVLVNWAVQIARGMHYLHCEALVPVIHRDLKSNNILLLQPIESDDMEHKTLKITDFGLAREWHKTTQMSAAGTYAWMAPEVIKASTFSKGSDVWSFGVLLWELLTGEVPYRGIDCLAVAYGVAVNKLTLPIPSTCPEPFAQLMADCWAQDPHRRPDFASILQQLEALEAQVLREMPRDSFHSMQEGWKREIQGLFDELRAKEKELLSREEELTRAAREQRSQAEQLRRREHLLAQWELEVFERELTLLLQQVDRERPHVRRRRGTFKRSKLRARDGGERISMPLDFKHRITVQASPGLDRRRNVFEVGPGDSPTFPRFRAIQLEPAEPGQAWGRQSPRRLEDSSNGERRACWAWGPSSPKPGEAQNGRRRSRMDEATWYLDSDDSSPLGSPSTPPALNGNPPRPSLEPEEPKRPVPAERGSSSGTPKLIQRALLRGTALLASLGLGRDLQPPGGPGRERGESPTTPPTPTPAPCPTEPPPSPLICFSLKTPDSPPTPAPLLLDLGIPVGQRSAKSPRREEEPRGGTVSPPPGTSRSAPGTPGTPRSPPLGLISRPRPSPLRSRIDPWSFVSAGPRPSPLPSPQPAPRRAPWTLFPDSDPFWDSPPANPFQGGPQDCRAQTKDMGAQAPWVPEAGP
Chain of Serine/threonine-protein kinase Nek1 (Homo sapiens) (Q96PY6 whole entry): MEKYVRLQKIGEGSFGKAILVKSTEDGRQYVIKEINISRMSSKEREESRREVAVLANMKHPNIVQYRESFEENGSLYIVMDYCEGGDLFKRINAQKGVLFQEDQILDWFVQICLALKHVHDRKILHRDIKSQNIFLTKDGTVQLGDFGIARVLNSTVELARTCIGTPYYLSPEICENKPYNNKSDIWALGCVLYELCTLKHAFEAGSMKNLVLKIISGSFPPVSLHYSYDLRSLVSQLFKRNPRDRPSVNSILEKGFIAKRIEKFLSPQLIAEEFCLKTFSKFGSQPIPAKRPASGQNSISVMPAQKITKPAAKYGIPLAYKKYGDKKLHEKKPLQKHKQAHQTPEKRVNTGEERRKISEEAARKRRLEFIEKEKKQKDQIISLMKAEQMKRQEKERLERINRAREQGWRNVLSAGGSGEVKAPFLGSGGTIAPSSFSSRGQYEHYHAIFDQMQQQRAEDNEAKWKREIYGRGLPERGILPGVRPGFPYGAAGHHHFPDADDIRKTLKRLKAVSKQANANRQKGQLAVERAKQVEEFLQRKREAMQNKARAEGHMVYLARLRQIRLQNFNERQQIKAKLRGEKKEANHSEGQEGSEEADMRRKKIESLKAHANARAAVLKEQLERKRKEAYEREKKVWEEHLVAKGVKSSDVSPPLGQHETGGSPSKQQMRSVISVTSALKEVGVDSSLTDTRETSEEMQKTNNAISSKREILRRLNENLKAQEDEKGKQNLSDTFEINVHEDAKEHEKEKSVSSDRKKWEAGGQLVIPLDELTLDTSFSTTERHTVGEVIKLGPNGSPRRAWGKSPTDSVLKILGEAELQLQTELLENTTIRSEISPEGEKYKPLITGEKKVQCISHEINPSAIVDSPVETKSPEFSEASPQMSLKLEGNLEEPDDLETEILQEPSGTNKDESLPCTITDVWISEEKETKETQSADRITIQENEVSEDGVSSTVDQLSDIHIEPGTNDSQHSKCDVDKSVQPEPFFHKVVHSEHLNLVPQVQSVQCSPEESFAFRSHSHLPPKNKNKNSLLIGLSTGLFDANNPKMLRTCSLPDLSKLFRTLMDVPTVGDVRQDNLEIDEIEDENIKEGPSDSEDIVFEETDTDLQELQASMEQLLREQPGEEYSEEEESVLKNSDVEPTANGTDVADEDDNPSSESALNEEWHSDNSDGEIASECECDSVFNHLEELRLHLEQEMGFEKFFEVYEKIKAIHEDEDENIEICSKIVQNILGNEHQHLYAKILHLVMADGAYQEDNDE
Chain of TAR DNA-binding protein 43 (Homo sapiens) (Q13148 whole entry): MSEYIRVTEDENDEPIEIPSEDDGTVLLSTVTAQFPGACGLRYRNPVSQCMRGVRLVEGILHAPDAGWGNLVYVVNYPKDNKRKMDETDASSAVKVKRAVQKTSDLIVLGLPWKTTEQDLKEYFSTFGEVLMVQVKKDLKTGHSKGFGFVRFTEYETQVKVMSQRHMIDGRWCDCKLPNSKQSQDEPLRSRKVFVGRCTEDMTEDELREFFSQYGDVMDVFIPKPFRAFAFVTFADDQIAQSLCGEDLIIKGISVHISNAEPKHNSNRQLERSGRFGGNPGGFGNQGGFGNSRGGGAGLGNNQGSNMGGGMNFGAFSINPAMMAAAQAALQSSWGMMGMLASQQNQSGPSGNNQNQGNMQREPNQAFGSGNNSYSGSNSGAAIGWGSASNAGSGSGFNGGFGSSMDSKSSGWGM
Chain of Tripeptidyl-peptidase 1 (Homo sapiens) (O14773 whole entry): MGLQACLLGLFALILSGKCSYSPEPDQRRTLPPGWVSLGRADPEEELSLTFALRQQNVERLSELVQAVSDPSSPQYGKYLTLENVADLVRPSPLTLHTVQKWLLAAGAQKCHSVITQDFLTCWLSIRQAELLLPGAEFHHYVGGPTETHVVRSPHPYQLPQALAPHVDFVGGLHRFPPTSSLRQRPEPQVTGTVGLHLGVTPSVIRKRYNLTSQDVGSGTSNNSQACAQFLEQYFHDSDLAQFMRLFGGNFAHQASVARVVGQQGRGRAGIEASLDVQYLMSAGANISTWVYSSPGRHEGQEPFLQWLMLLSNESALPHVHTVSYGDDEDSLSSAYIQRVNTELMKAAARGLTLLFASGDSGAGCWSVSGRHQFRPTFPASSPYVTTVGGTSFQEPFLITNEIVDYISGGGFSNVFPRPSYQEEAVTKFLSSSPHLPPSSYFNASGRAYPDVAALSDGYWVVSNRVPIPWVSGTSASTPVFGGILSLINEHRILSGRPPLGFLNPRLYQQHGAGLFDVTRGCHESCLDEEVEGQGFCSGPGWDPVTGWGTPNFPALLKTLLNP
Chain of Protein salvador homolog 1 (Homo sapiens) (Q9H4B6 whole entry): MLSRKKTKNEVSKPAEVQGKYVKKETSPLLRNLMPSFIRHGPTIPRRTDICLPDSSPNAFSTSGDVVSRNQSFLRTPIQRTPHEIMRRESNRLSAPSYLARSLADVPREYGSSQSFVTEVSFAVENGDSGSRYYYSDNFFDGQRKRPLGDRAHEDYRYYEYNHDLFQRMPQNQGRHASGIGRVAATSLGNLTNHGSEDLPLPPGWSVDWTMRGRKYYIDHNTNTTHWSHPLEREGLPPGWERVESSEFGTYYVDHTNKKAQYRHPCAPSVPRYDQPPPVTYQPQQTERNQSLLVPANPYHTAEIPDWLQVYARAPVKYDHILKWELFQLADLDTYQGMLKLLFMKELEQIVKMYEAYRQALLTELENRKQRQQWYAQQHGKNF
Chain of Prothymosin alpha (Homo sapiens) (P06454 whole entry, the tested form may be a part): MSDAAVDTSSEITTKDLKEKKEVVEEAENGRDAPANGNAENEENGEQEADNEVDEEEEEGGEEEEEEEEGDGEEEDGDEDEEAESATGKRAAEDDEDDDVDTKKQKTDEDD

Work on `Cc1ccc(C(=O)Nc2cccc(C(F)(F)F)c2)cc1Nc1nc(-c2cccnc2)nc2c1cnn2C` yielded an ED50 [1] of 0.217 µM, an ED50 [2] of 0.0177 µM and an ED50 [3] of 3.52 µM. The ED50 [4] was 0.771 µM, the ED50 [5] was 0.00417 µM and the ED50 [6] was 0.787 µM. It also gave an ED50 (Homo sapiens [7]) of 5.49 µM, an ED50 [8] of 72.6 µM and an ED50 [9] of 2.26 µM. For the same molecule, the ED50 [10] was 5.18 µM, the ED50 [11] was 0.379 µM and the ED50 (Homo sapiens [12]) was 3.14 µM. It also gave an ED50 [13] of 0.00937 µM, an ED50 [14] of 3.18 µM and an ED50 [15] of 6.82 µM. The ED50 [16] was 4.55 µM, the ED50 [17] was 4.09 µM and the ED50 (Homo sapiens [18]) was 2.84 µM. The ED50 [19] was 11 µM, the ED50 [20] was 1.03 µM and the ED50 [21] was 7.35 µM. The ED50 [22] was 0.176 µM, the ED50 [23] was 19.1 µM and the ED50 [24] was 1.75 µM. The ED50 [25] was 0.97 µM, the ED50 [26] was 1.87 µM and the ED50 [27] was 0.00246 µM. For the same molecule, the ED50 [28] was 3.14 µM, the ED50 [29] was 0.433 µM and the ED50 [30] was 11.1 µM. It also gave an ED50 [31] of 6.41 µM, an ED50 [32] of 0.0304 µM and an ED50 [33] of 5.11 µM. It also gave an ED50 [34] of 0.645 µM, an ED50 [35] of 13.4 µM and an ED50 [36] of 0.916 µM. The ED50 [37] was 2.39 µM, the ED50 (Stathmin (Homo sapiens)) was 12.4 µM and the ED50 [38] was 0.0199 µM. For the same molecule, the ED50 [39] was 0.017 µM, the ED50 [40] was 0.814 µM and the ED50 (Elongin-C (Homo sapiens)) was 122 µM. It also gave an ED50 [41] of 4.22 µM, an ED50 [42] of 0.0219 µM and an ED50 [43] of 3.39 µM. The ED50 (Titin (Homo sapiens)) was 0.0522 µM, the ED50 [44] was 0.00616 µM and the ED50 [45] was 0.0358 µM.

`Cc1ccc(C(=O)Nc2cccc(C(F)(F)F)c2)cc1Nc1nc(-c2cccnc2)nc2nn(C)cc12` was tested, and the ED50 [1] was 4.78 µM, the ED50 [2] was 0.0663 µM and the ED50 [3] was 0.161 µM. For the same molecule, the ED50 [4] was 15.6 µM, the ED50 [5] was 0.819 µM and the ED50 [6] was 0.126 µM. It also gave an ED50 (Homo sapiens [7]) of 0.961 µM, an ED50 [8] of 0.099 µM and an ED50 [9] of 3.14 µM. The ED50 [10] was 0.0305 µM, the ED50 [11] was 0.639 µM and the ED50 (Homo sapiens [12]) was 9.29 µM. It also gave an ED50 [13] of 6850 µM, an ED50 [14] of 8.73 µM and an ED50 [15] of 0.842 µM. It also gave an ED50 [16] of 36500 µM, an ED50 [17] of 0.00989 µM and an ED50 (Homo sapiens [18]) of 0.0194 µM. The ED50 [19] was 0.0109 µM, the ED50 [20] was 4.03 µM and the ED50 [21] was 0.581 µM. The ED50 [22] was 5.25 µM, the ED50 [23] was 0.409 µM and the ED50 [24] was 523 µM. The ED50 [25] was 1.3 µM, the ED50 [26] was 0.000912 µM and the ED50 [27] was 4.94 µM. For the same molecule, the ED50 [28] was 14.9 µM, the ED50 [29] was 36.6 µM and the ED50 [30] was 19.9 µM. The ED50 [31] was 4.74 µM, the ED50 [32] was 12.9 µM and the ED50 [33] was 0.0063 µM. It also gave an ED50 [34] of 0.199 µM, an ED50 [35] of 0.356 µM and an ED50 [36] of 2.99 µM. It also gave an ED50 [37] of 0.018 µM, an ED50 (Stathmin (Homo sapiens)) of 8.26 µM and an ED50 [38] of 0.0386 µM. The ED50 [39] was 0.0151 µM, the ED50 [40] was 0.176 µM and the ED50 (Elongin-C (Homo sapiens)) was 0.682 µM. It also gave an ED50 [41] of 0.0218 µM, an ED50 [42] of 0.281 µM and an ED50 [43] of 5310 µM. For the same molecule, the ED50 (Titin (Homo sapiens)) was 0.0126 µM, the ED50 [44] was 0.049 µM and the ED50 [45] was 0.0567 µM.
